“And” between values parts separate entries of the source, which are not always exact repeats. Equal values may be shown once. Where a name gives a salt, the structure may show the parent alone.

With `COc1cc(OC)cc(N(CCN2CCOCC2)c2ccc3ncc(-c4cnn(C)c4)nc3c2)c1` [Compound 299], the melting point (usually the temperature of the solid-liquid transition) worked out at 201 °C.
As to `CCOc1cc(F)cc(N(CCN)c2ccc3ncc(-c4cnn(C)c4)nc3c2)c1` [Compound 478], the melting point is 70 °C.
Then `COc1cc(OC)cc(N(CC2CNC(=O)O2)c2ccc3ncc(-c4cnn(C)c4)nc3c2)c1` (stereo not shown), with 157 °C; and `CNC(=O)Cn1cc(-c2cnc3ccc(N(CCO)c4cc(OC)cc(OC)c4)cc3n2)cn1` [Compound 21], with 204.45 °C and 204.5 °C; and `CCn1cc(-c2cnc3ccc(N(CCNC(C)C)c4cc(OC)cc(OC)c4)cc3n2)cn1` (as salt: HCl) [Compound 135, N-(3,5-Dimethoxyphenyl)-N-[3-(1-ethyl-1H-pyrazol-4-yl)quinoxalin-6-yl]-N′-(1-methylethyl)ethane-1,2-diamine], with 194 °C.
In turn, `COc1cc(OC)cc(N(CCO)c2ccc3ncc(-c4cnn(C)c4CN(C)C)nc3c2)c1` registered a melting point of 176 °C.
As to `COCCn1cc(-c2cnc3ccc(N(CC4CC4)c4cc(OC)cc(OC)c4)cc3n2)cn1`, the melting point worked out at 101.91 °C.
Then `COc1cc(OC)cc(N(CCCNCC(F)F)c2ccc3ncc(-c4cnn(C)c4)nc3c2)c1` [Compound 717], with 125 °C.
`COc1cc(OC)cc(N(CCCN2CCC(F)(F)C2)c2ccc3ncc(-c4cnn(C)c4)nc3c2)c1` [Compound 602] gave a melting point of 158.84 °C.
Then `COc1cc(OC)cc(N(CCCN2CCCC2)c2ccc3ncc(-c4cnn(CCS(C)(=O)=O)c4)nc3c2)c1` [Compound 295], with 155.31 °C.
With `COc1cc(OC)cc(N(CC2CC2)c2ccc3ncc(-c4cnn(S(C)(=O)=O)c4)nc3c2)c1`, the melting point turned out to be 207.88 °C.
For `COc1cc(OC)cc(N(CCCN2CC(F)(F)C2)c2ccc3ncc(-c4cnn(C)c4)nc3c2)c1` [Compound 377], the melting point was 112.31 °C.
Take `COc1cc(OC)cc(N(CCCO)c2ccc3ncc(-c4cnn(C5CCCCO5)c4)nc3c2)c1` (stereo not shown): the melting point stood at 168.25 °C.
The molecule `COc1cc(OC)cc(N(CC2CC2)c2ccc3ncc(-c4cnn(C(C)(C)C(=O)N5CCNCC5)c4)nc3c2)c1` gave a melting point of 127.97 °C.
`COc1cc(OCCO)cc(N(CCCO)c2ccc3ncc(-c4cnn(C)c4)nc3c2)c1` came in with a melting point of 80 °C.
With `C=Cc1cc(OC)cc(N(CC2CC2)c2ccc3ncc(-c4cnn(C)c4)nc3c2)c1`, the melting point was determined as 146 °C.
In the case of `COc1cc(OC)cc(N(CC2CC2)c2ccc3ncc(-c4cnn(CCN)c4)nc3c2)c1`, the melting point stood at 130 °C.
`COc1cc(OC)cc(N(CCN)c2ccc3ncc(-c4cn[nH]c4)nc3c2)c1` yielded a melting point of 184 °C.
Then `COc1cc(OC)cc(N(CC(=O)Nc2nccc(OC)n2)c2ccc3ncc(-c4cnn(C)c4)nc3c2)c1`, with 241 °C; and `COc1cc(O)cc(N(CCCO)c2ccc3ncc(-c4cn[nH]c4)nc3c2)c1`, with 125 °C.
Then `COCC(O)CN(c1cc(OC)cc(OC)c1)c1ccc2ncc(-c3cnn(C(C)C)c3)nc2c1` (stereo not shown) (as salt: hydrochloric acid salt), with 110 °C.
Take `COc1cc(OC)cc(N(CCNCCC#N)c2ccc3ncc(-c4cnn(C)c4)nc3c2)c1` [Compound 140, 3-[(2-{(3,5-Dimethoxyphenyl)[3-(1-methyl-1H-pyrazol-4-yl)quinoxalin-6-yl]amino}ethyl)amino]propanenitrile]: the melting point was found to be 123.19 °C.
With `COc1cc(F)cc(N(CCO)c2ccc3ncc(-c4cnn(CCO)c4)nc3c2)c1` [Compound 315], the melting point amounted to 139 °C.
For the molecule `COc1cc(OC)cc(N(Cc2nc(OC)cc(OC)n2)c2ccc3ncc(-c4cnn(C)c4)nc3c2)c1`, the melting point was 127 °C.
For `COc1cc(OC)cc(N(CCN(Cc2ccccc2N)C(C)C)c2ccc3ncc(-c4cnn(C)c4)nc3c2)c1`, the melting point is 70 °C.
With `COc1cc(OC)cc(N(CCCN2CCC(F)(F)C2)c2ccc3ncc(-c4cn[nH]c4)nc3c2)c1` (as salt: HCl), the melting point turned out to be 215.29 °C.
Then `COc1cc(OC)cc(N(C/C(C)=N\O)c2ccc3ncc(-c4cnn(C)c4)nc3c2)c1` [Compound 81], with 199 °C; and `COc1cc(OC)cc(N(CC2CO2)c2ccc3ncc(-c4cnn(C)c4)nc3c2)c1` (stereo not shown), with 158.57 °C; and `CNC(=O)Cn1cc(-c2cnc3ccc(N(CCNC(C)C)c4cc(OC)cc(OC)c4)cc3n2)cn1` (as salt: HCl) [Compound 134, 2-(4-{7-[(3,5-Dimethoxyphenyl){2-[(1-methylethyl)amino]ethyl}amino]quinoxalin-2-yl}-1H-pyrazol-1-yl)-N-methylacetamide], with 184 °C.
In turn, `COc1cc(OC)cc(N(CCNC(C)C)c2ccc3ncc(-c4cnn(CCCN5CCN(CCO)CC5)c4)nc3c2)c1` (as salt: HCl) [Compound 644] registered a melting point of 96 °C.
The molecule `COc1cc(OC)cc(N(CCNC(C)C)c2ccc3ncc(-c4cnn(C5CCN(C(=O)OC(C)(C)C)CC5)c4)nc3c2)c1` gave a melting point of 66 °C.
`COc1ccnc(C#CCN(c2ccc3ncc(-c4cnn(C)c4)nc3c2)c2c(Cl)c(OC)cc(OC)c2Cl)n1` yielded a melting point of 130 °C.
`COc1cccnc1C#CCN(c1ccc2ncc(-c3cnn(C)c3)nc2c1)c1c(F)c(OC)cc(OC)c1F` had a melting point of 202 °C.
`COc1cc(OC)cc(N(CC(O)C(F)(F)F)c2ccc3ncc(-c4cnn(C)c4)nc3c2)c1` (single isomer, unassigned) [Compound 149, (2S*)-3-{(3,5-Dimethoxyphenyl)[3-(1-methyl-1H-pyrazol-4-yl)quinoxalin-6-yl]amino}-1,1,1-trifluoropropan-2-ol]: the melting point came to 146.61 °C.
For the molecule `COc1cc(OC)cc(N(CC2CC2)c2ccc3ncc(-c4cnn(CCNS(=O)(=O)N(C)C)c4)nc3c2)c1`, the melting point is 160.27 °C.
Molecule `COc1cc(OC)cc(N(CC2CC2)c2ccc3ncc(-c4cnn(CCNS(C)(=O)=O)c4)nc3c2)c1` [Compound 271] gave a melting point of 181.91 °C.
In turn, `CNC(=O)c1cc(OC)cc(N(CC2CC2)c2ccc3ncc(-c4cn[nH]c4)nc3c2)c1` [Compound 311] yielded a melting point of 262.42 °C.
In turn, `COc1cc(OC)cc(N(C[C@@H](O)C(F)(F)F)c2ccc3ncc(-c4cnn(CCCN)c4)nc3c2)c1` [Compound 660, 3-[{3-[1-(3-Aminopropyl)-1H-pyrazol-4-yl]quinoxalin-6-yl}(3,5-dimethoxyphenyl)amino]-1,1,1-trifluoropropan-2-ol] had a melting point of 151 °C.
On to `CNC(=O)Cn1cc(-c2cnc3ccc(N(CCCO)c4cc(OC)cc(OC)c4)cc3n2)cn1` [Compound 313], for which the melting point is 176 °C and 176.49 °C.
Regarding `CNC(=O)Cn1cc(-c2cnc3ccc(N(CCN)c4cc(OC)cc(OC)c4)cc3n2)cn1` [Compound 34], the melting point was 174 °C and 173.67 °C.
On to `COc1cc(OC)cc(N(CCP(=O)(O)O)c2ccc3ncc(-c4cnn(C)c4)nc3c2)c1` (as salt: HBr), for which the melting point was above 260 °C.
As for `COc1cc(OC)cc(N(CCCN)c2ccc3ncc(-c4cnn(C)c4)nc3c2)c1` [Compound 93, N-(3,5-Dimethoxyphenyl)-N-[3-(1-methyl-1H-pyrazol-4-yl)quinoxalin-6-yl]propane-1,3-diamine], the melting point is 175.51 °C and 178 °C.
As for `COc1cc(OCCN)cc(N(CC2CC2)c2ccc3ncc(-c4cnn(C)c4)nc3c2)c1` [Compound 32], the melting point was 80 °C.
As to `COc1cc(OC)cc(N(CC2CCN(c3nccc(OC)n3)CC2)c2ccc3ncc(-c4cnn(C)c4)nc3c2)c1` [Compound 839], the melting point was found to be 126 °C.
For `COc1cc(OC)cc(N(CC#Cc2cccnc2Br)c2ccc3ncc(-c4cnn(C)c4)nc3c2)c1`, the melting point is 176 °C.
As for `CNC1CCN(CCCN(c2cc(OC)cc(OC)c2)c2ccc3ncc(-c4cnn(C)c4)nc3c2)C1` (stereo not shown), the melting point is 139.15 °C.
`COc1cc(OC)cc(N(CC2CC2)c2ccc3ncc(-c4cnn(CC(C)C)c4)nc3c2)c1`: the melting point worked out at 110 °C.
The molecule `COc1cc(OC)cc(N(CCCN2CCC[C@@H]2CC#N)c2ccc3ncc(-c4cnn(C)c4)nc3c2)c1` (as salt: HCl) had a melting point of 140 °C.
Then `COC(=O)c1ccnc(C#CCN(c2cc(OC)cc(OC)c2)c2ccc3ncc(-c4cnn(C)c4)nc3c2)n1`, with 178 °C; and `COc1cc(OC)cc(N(CC#Cc2nccc(OC)n2)c2ccc3ncc(-c4cnn(C)c4)nc3c2)c1`, with 175 °C; and `COc1cc(OC)cc(N(C[C@H](O)CO)c2ccc3ncc(-c4cnn(C)c4)nc3c2)c1` (single isomer, unassigned) [Compound 98], with 186.98 °C.
As to `COc1cc(OC)cc(N(CC2CC2)c2ccc3ncc(-c4cnn(CCC5CCNCC5)c4)nc3c2)c1`, the melting point was 221 °C and 220.78 °C.
`COc1cc(OC)cc(N(CCN2CCC(CN)CC2)c2ccc3ncc(-c4cnn(C)c4)nc3c2)c1` (as salt: HCl): the melting point is 151 °C.
Then `COc1cc(OC)cc(N(CCN(C)C(C)C)c2ccc3ncc(-c4cnn(C)c4)nc3c2)c1`, with 126 °C.
Molecule `COc1cc(OC)cc(N(CC#CC2(O)CCNCC2)c2ccc3ncc(-c4cnn(C)c4)nc3c2)c1` yielded a melting point of 167 °C.
`Cn1cc(-c2cnc3ccc(N(CC4CC4)c4cccc(OC(F)(F)F)c4)cc3n2)cn1` [Compound 881] gave a melting point of 156.5 °C.
Regarding `COc1cc(OC)cc(N(CC#CC2CCN(C(=O)OC(C)(C)C)CC2)c2ccc3ncc(-c4cnn(C)c4)nc3c2)c1`, the melting point came out at 67 °C.
`CNCCN(c1cc(F)cc(OC)c1)c1ccc2ncc(-c3cnn(C)c3)nc2c1` [Compound 510] showed a melting point of 70 °C.
Regarding `COCC(O)CN(c1cc(OC)cc(OC)c1)c1ccc2ncc(-c3cnn(C)c3)nc2c1` (stereo not shown) [Compound 397], the melting point was 132.82 °C.
`CNC(=O)Cn1cc(-c2cnc3ccc(N(CCCNC(C)C)c4cc(OC)cc(OC)c4)cc3n2)cn1` [Compound 615] returned a melting point of 134 °C.
Then `COc1cc(OC)cc(N(C[C@@H](O)CO)c2ccc3ncc(-c4cnn(C)c4)nc3c2)c1` (single isomer, unassigned) [Compound 97], with 187.39 °C and 188 °C.

The values are drawn from patent US9464071B2 (priority 2010, dated 2016).
